Results reported in publication PMC11078216, “Discovery of potent and selective activity-based probes (ABPs) for the deubiquitinating enzyme USP30” (RSC Chemical Biology, 2024).
Each block holds one compound with its values, some of them ahead of it.

Columns and labels:
Assay in all cases: ABPP chemical proteomics (LC-MS/MS) in HEK293T cells
Format in all cases: cell-based
ALDH2 = molecular target: T1, ALDH2 (Homo sapiens, UniProt P05091)
T1 construct: endogenous in cells; host or cells: HEK293T
T1 sequence (P05091 18-517): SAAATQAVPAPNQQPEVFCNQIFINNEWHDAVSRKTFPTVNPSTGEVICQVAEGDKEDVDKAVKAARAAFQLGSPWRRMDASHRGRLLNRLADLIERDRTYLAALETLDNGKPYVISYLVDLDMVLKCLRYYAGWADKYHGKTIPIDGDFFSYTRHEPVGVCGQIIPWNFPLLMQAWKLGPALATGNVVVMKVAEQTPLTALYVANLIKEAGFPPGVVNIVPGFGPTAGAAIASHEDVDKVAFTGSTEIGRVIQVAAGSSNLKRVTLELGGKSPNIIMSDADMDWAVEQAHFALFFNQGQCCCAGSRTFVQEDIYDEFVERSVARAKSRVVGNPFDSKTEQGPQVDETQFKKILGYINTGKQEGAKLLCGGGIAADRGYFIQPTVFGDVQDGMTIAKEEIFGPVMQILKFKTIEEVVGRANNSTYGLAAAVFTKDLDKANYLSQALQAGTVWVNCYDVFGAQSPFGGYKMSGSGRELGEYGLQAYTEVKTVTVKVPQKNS
Method: (§1) To explore the selectivity of IMP-2587 and IMP-2586 across the whole proteome, we performed quantitative activity-based protein profiling (ABPP) in HEK293T cells following treatment with IMP-2587 or IMP-2586 (Fig. 3a). After ABP incubation, cells were lysed, and probe-labelled proteins were ligated to biotinylated capture reagents.[27] […] USP30 was outcompeted by corresponding parent inhibitors for each ABP (Fig. 5b and d and Tables S3 and S5, ESI ^†), confirming the high potency and rapid engagement of IMP-2587 and IMP-2586 in cells. […] DESI1 and DESI2 are small ubiquitin-related modifier (SUMO) proteases,[3,29–32] and IMP-2587 and IMP-2586 may offer a starting point for future development of DESI ABPs. […]
(§2) d) Live cell probe incubation, lysate click chemistry and precipitation 6-well HEK293T cells were incubated with media containing compounds ABP 2 and ABP 4 at indicated concentrations for 1 h at 37 °C. The cells were washed with PBS and lysed with lysis buffer (50 μL (1% (v/v) Triton X-100, 0.1% (w/v) sodium dodecyl sulfate (SDS), EDTA-free complete protease inhibitor cocktail (1×, Roche) in PBS on ice for 10 min. The lysates were scraped and transferred to corresponding Lo-Bind Eppendorfs. Each lysate was sonicated for 1 minute, and the samples centrifuges at 5,000 x g at 4 °C for 5 minutes to pellet insoluble cellular debris. The supernatant was collected, and protein concentration was determined using the DC Protein Assay (Bio-Rad) as per manufacturer’s instructions, and normalised to lowest concentrated sample (e.g. 1 mg/mL, using lysis buffer). The following “click mixture” was prepared separately, preparing 6 μL for every 100 μL of […]
(§3) Capture reagent (AzRB/AzT for ABP 2, YnT/YnB for ABP 4 10 mM in DMSO, 1 vol; final concentration […]
(§4) CuSO4 (50 mM in water, 2 vol; final concentration in reaction 1 mM)
(§5) TCEP (50 mM in water, 2 vol; final concentration in reaction 1 mM)
(§6) TBTA (10 mM in DMSO, 1 vol; final concentration in reaction 100 µM)
(§7) The click mixture was vortexed and incubated at room temperature for 2 min before 6 μL of the mixture was added to every 100 μL of lysate. The reaction mixtures were shaken at room temperature for 1 h before being quenched with EDTA (500 mM in H2O) to a final concentration of 10 mM.
(§8) Proteins were precipitated by adding H2O (1 vol), MeOH (2 vol) and CHCl3 (0.5 vol), vortexing briefly then centrifuging at 17,000 × g for 5 min. The top H2O/MeOH layer was discarded and the middle layer of protein pellet and lower CHCl3 layer retained. The suspension was washed with MeOH (300 μL), and sonicated to break up the pellet. The proteins were pelleted by centrifugation at 10,000–17000 × g for 5–10 min or until a compact pellet was formed. The protein pellet was washed once more with MeOH (1 mL). The pellet was resuspended by sonicating and completely dissolving in 1% (w/v) SDS in PBS (to 5 mg/mL protein) before being made up to 1 mg/mL protein with PBS. […]
(§9) f) Neutravidin biotin enrichment (Affinity pull-down)
(§10) Click chemistry and precipitation steps were carried out as described in section 3.2.d, on at least 400ug of protein per sample. The pellet was resuspended by sonicating and completely dissolving in 1% (w/v) SDS in HEPES 50 mM pH 8.0, before being made up to 1 mg/mL protein with HEPES 50 mM pH 8.0 to […]
(§11) achieve a final concentration of 0.2% SDS. 20uL of each samples was collected as TL (Total lysate) samples. Pull down of biotinylated proteins was achieved by incubating samples with pre-equilibrated (3x 1 mL washes with 0.2% (w/v) SDS in HEPES 50 mM pH 8 buffer) Pierce™ NeutrAvidin™ Agarose beads for 3 hours at room temperature. NeutrAvidin™ Agarose beads were used in ratio of 1 μL bead resin per 10ug of protein sample. The beads were subsequently washed by moderate shaking for 10 seconds then briefly pelleting by table-top centrifuge then vacuum aspirating the supernatant with fine-end pipette tips (to not disturb the agarose) after collecting 20 µL supernatant as SN (supernatant […]
(§12) ) samples. […]

C21orf33 = molecular target: T2, C21orf33 (Homo sapiens, UniProt P0DPI2)
T2 construct: endogenous in cells; host or cells: HEK293T
T2 sequence (P0DPI2 42-268): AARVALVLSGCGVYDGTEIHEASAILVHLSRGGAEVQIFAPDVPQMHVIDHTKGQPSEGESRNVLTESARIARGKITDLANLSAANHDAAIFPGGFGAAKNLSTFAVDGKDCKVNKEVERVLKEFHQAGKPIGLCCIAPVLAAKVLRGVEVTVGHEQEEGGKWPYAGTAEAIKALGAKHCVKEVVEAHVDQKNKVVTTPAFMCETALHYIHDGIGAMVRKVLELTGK
Method: as §1, §2, §3, §4, §5, §6, §7, §8, §9, §10, §11, §12

DESI1 = molecular target: T3, DESI1 (Homo sapiens, UniProt Q6ICB0)
T3 construct: endogenous in cells; host or cells: HEK293T
T3 sequence (Q6ICB0 1-168): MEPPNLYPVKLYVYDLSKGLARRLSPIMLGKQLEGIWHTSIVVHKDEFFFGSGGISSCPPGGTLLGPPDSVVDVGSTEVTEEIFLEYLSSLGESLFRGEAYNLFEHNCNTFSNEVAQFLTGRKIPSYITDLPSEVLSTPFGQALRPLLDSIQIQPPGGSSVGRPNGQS
Method: as §1, §2, §3, §4, §5, §6, §7, §8, §9, §10, §11, §12

DESI2 = molecular target: T4, DESI2 (Homo sapiens, UniProt Q9BSY9)
T4 construct: endogenous in cells; host or cells: HEK293T
Method: as §1, §2, §3, §4, §5, §6, §7, §8, §9, §10, §11, §12

[1] = IMP-2586 labelling vs DMSO, 30 nM, 10 min, HEK293T (Table S4, Fig.5c)
[2] = IMP-2587 labelling vs DMSO, 30 nM, 10 min, HEK293T (Table S2, Fig.5a)
[3] = compound 1 out-competition with IMP-2587 labelling, HEK293T (Table S3, Fig.5b)
[4] = compound 3 out-competition with IMP-2586 labelling, HEK293T (Table S5, Fig.5d)

T4 sequence (Q9BSY9 whole entry): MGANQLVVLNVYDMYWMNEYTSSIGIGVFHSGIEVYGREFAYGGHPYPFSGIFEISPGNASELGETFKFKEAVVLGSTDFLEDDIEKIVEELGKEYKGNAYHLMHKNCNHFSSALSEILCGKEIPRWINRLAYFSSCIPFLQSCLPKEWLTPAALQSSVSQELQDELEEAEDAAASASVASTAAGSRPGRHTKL

SMILES: N#CN1CC[C@@H](NC(=O)c2cc(-c3ccccc3Oc3ccc(N=[N+]=[N-])cc3)n[nH]2)C1 [IMP-2586]
Difference (log2 fold change of enrichment) (ALDH2; [1]): 2.13 | Difference (log2 fold change of enrichment) (C21orf33; [1]): 3.93 | Difference (log2 fold change of enrichment) (DESI1; [1]): 3.04 | Difference (log2 fold change of enrichment) (DESI2; [1]): 3.40

SMILES: C#Cc1cccc(-c2cc(NC(=O)CC3CCN(C#N)C3)on2)c1 (stereo not drawn) [IMP-2587]
Difference (log2 fold change of enrichment) (ALDH2; [2]): 3.49 | Difference (log2 fold change of enrichment) (C21orf33; [2]): 0.92 | Difference (log2 fold change of enrichment) (DESI1; [2]): 3.61 | Difference (log2 fold change of enrichment) (DESI2; [2]): 2.02

Difference (log2 fold change of enrichment) (ALDH2; [3]): -3.07 | Difference (log2 fold change of enrichment) (DESI1; [3]): -3.45 | Difference (log2 fold change of enrichment) (DESI2; [3]): -1.75
SMILES: N#CN1CC[C@H](CC(=O)Nc2cc(-c3cccc(Cl)c3)no2)C1 [compound 1, reference compound]

Difference (log2 fold change of enrichment) (ALDH2; [4]): -1.64 | Difference (log2 fold change of enrichment) (C21orf33; [4]): -3.65 | Difference (log2 fold change of enrichment) (DESI1; [4]): -2.81 | Difference (log2 fold change of enrichment) (DESI2; [4]): -3.13
SMILES: N#CN1CC[C@@H](NC(=O)c2cc(-c3ccccc3Oc3ccccc3)n[nH]2)C1 [compound 3, reference compound]
